Measurements: BindingDB's records for doi:10.1021/bi000930v (Max Planck Institute, 2001)

How the values were obtained:
[1] = target: T1, E3 ubiquitin-protein ligase Mdm2 (Homo sapiens, UniProt Q00987); test: p53-MDM2 Binding ELISA; settings: pH 7.4; 23 °C
Protocol: Interference of the p53-MDM2 binding by test compounds was measured in a 96-well polypropylene round-bottom microtiter plate (Costar, Serocluster). Human MDM2 (amino acids 1-118) was preincubated with 10% DMSO or compounds in assay buffer. After 15-min incubation of the sample, a biotinylated p53-derived peptide was added. As a negative control, buffer only was added into separate wells (blanks). After another 30 min, the incubation mixture was added to 96-well plates coated with streptavidin. After 1 h, the wells were extensively washed. Then, the MDM2 specific antibody was added. After 1 h, the wells were thoroughly washed and the secondary antibody (anti-rabbit-IgG-POD) was added. After another hour, the wells were washed, and the peroxidase subtrate ABTS was added. After 30 min, OD 405/490 nm was determined with a Dynatech MR 7000 ELISA reader.

[2] = target: T1, E3 ubiquitin-protein ligase Mdm2; test: NMR Titration Experiment; settings: pH 7.4; 23 °C
Protocol: NMR measurements consisted of monitoring changes in chemical shifts and line widths of the backbone amide resonances of uniformly 15N-enriched MDM2 samples in a series of HSQC spectra as a function of a ligand concentration. The complexes of human MDM2 and the chalcones were prepared by mixing the protein and the ligand in the NMR tube. Typically, NMR spectra were recorded 15 min after mixing at room temperature. An initial screening of all compounds used in this study was performed with a 10-fold molar excess of chalcone to human MDM2. […] All KD values obtained by NMR spectroscopy are based on at least six data points.

T1 sequence (Q00987 whole entry, the tested form may be a part): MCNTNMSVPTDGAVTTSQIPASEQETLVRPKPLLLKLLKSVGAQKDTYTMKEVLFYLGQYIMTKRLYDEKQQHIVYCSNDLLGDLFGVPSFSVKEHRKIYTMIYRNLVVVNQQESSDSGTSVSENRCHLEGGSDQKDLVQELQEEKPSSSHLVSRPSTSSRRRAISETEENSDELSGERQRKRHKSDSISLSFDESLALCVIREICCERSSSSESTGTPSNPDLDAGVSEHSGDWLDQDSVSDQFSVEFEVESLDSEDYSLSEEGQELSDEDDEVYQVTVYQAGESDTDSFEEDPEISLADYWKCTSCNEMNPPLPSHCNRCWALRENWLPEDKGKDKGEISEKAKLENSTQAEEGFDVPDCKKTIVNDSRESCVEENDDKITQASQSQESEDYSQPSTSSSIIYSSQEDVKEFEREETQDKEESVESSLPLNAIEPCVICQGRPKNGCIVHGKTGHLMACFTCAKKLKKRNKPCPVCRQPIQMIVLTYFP

IC50 [1] [µM] | Kd [2] [µM] | Structure (SMILES)
117 | 150 | O=C(O)COc1ccc(C(=O)/C=C/c2ccc(Cl)c(Cl)c2)cc1 [Chalcone derivative, B-1]
250 | 244 | CC(C)(Oc1ccc(/C=C/C(=O)c2ccc(Cl)cc2)cc1)C(=O)O [Chalcone derivative, C]
> 250 | – | Oc1ccc2ccc3c(c2c1)CN(Cc1ccccc1)CO3 [Chalcone derivative, D]
> 250 | – | CCOc1ccc(NC(=O)CC(=Nc2ccccc2)c2ccccc2)cc1 [Chalcone derivative, G]
– | 270 | O=C(O)COc1c(Br)cc(/C=C/C(=O)c2ccc3ccccc3c2)cc1Br [Chalcone derivative, N]

Further lines, the compound ahead of its results:

Structure (SMILES) | IC50 [1] [µM] | Kd [2] [µM]
O=C(O)COc1ccc(/C=C/C(=O)c2ccc(Cl)cc2)cc1 [Chalcone derivative, A] | 206 | 220
O=C(O)COc1ccc(/C=C/C(=O)c2ccc(Cl)c(Cl)c2)cc1 [Chalcone derivative, B] | 49 | 90
CCOC(=O)C(C)(C)Oc1ccc(CCNC(=O)/C=C/C(=O)c2ccc(Cl)cc2)cc1 [Chalcone derivative, E] | > 250 | –
O=C(CC(=Nc1ccccc1)c1ccccc1)Nc1ccccc1 [Chalcone derivative, F] | > 250 | –
O=C(C(=S)Nc1ccccc1)C(C=Nc1ccccc1)c1ccccc1 (centres undefined) [Chalcone derivative, H] | > 250 | –
